Consider two compounds from patent US9388147B2 (Receptos, Inc., priority 2009, dated 2016).

One test deals with TNBS induced colitis. Briefly: TNBS Crohn's colitis model in rats. In kind it is in vivo, Sprague-Dawley rat. Particulars: 1 mg/kg oral daily for six days, 31% in the diseased rats. How it is done: Male Sprague-Dawley rats (180-200 g) were acclimatized for seven days and then assigned to 8 rats per group so that each group had approximately the same mean weight. Twenty-four hours prior to disease initiation, rats are deprived of food. Rats were anaesthetized and weighed, then 80 mg/kg TNBS solution (50% TNBS: 50% 200 proof ethanol) was instilled into colon via a 20 g feeding needle inserted into the anus. The rats were maintained in head down position until recovery from anesthesia. Daily oral dosing was initiated 2 h post TNBS-instillation for six days. Prednisolone served as a positive control and was administered orally daily at 10 mg/kg. Body weights were monitored daily and 24 h after the last dose, all groups are terminated. The colon was removed, flushed of fecal matter and examined for gross changes including strictures, adhesions and ulcers. The colon length, weight of the distal 2 cm, and wall thickness was recorded.

In another test the target is T1, S1P1 W269L (Homo sapiens, UniProt P21453, W269L).
T1 construct: expressed in transfected cells; host or cells: CHOK1
Briefly: Phosphorylated-ERK1/2 In Cell Western, S1P1 W269L mutant. In kind it is cell-based. How it is done: CHOK1 cells were transfected using Fugene (Roche). Stably expressing mixed pools were selected with 2 mg/ml G418. Expression of functional S1P1/EDG1 receptor was confirmed by cell surface FACS with a S1P1 antibody (R&D Systems, clone 218713). Stable pools were seeded at 40,000 cells/well in a clear bottom 96-well tray, and incubated at 37° C. in 5% CO2 for 18 hrs. Cells were serum-starved in FreeStyle 293 medium (Invitrogen) for 4-6 h, then incubated for 5 min with a dose response of compound, in duplicate. Cells were fixed with 4% paraformaldehyde for 20 min, permeabilized with 0.1% Triton X-100 in PBS (4×5 min washes) and blocked for 1 h in Odyssey Blocking Buffer (LI-COR). All incubations were at room temperature. Cells were incubated for 18 h at 4° C. in Rabbit anti-Phospho-ERK1/2 (Cell Signaling #4377) and Mouse anti-ERK1/2 (Cell Signaling #9107) both diluted 1:800 in Odyssey Blocking Buffer. Plates were washed with 0.1% Tween-20 in PBS and then incubated with Odyssey Blocking Buffer containing IRDye 680-labeled goat anti-rabbit antibody (#926-32221; diluted 1/500) and IRDye 800CW-labeled goat anti-mouse antibody (#926-32210; diluted 1/1000). Plates were washed with 0.1% Tween-20 in PBS, all liquid was removed from the wells and the plates were scanned using a LICOR Odyssey scanner. […] Data was analyzed by non-linear regression using GraphPad Prism to determine the EC50 of binding. […]

T1 sequence (P21453 whole entry W269L): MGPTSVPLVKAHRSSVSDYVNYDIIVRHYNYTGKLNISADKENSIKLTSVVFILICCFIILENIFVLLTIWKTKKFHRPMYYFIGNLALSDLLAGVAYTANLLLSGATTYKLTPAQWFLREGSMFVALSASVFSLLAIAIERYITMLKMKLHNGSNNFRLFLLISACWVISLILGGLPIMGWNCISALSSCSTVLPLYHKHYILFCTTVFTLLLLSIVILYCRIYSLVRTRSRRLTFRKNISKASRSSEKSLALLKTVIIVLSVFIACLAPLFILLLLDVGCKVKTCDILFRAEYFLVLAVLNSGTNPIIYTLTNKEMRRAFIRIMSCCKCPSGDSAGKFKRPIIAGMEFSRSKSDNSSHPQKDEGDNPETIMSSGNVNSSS

Turning to `CC(C)Oc1ccc(-c2nc(-c3cccc4c3CC[C@H]4NCCO)no2)cc1C#N` [Compound 85, (R)-5-(3-(1-(2-hydroxyethylamino)-2,3-dihydro-1H-inden-4-yl)-1,2,4-oxadiazol-5-yl)-2-isopropoxybenzonitrile], the “TNBS induced colon shortening” value in the test on TNBS induced colitis is 15%.

In the case of `CC(C)Oc1ccc(-c2nc(-c3cccc4c3CC[C@@H]4N)no2)cc1C#N` [Compound 50, (S)-5-(3-(1-amino-2,3-dihydro-1H-inden-4-yl)-1,2,4-oxadiazol-5-yl)-2-isopropoxy-benzonitrile], at S1P1 W269L, the “Effect of mutation on binding of compound (in words)” value was “abolishes binding”.
